Assays:
[1] = tested on: Mus musculus; experiment: Anticonvulsant activity in Mus musculus (mouse) assessed as protection against pentylenetetrazole-induced seizures at 100 mg/kg, ip administered 1 hr before pentylenetetrazole challenge measured after 30 min; format: functional; conditions: route intraperitoneal
[2] = tested on: Mus musculus; experiment: Anticonvulsant activity in Mus musculus (mouse) assessed as protection against pentylenetetrazole-induced seizures at 150 mg/kg, ip administered 1 hr before pentylenetetrazole challenge measured after 30 min; format: functional; conditions: route intraperitoneal
[3] = tested on: Mus musculus; experiment: Anticonvulsant activity in Mus musculus (mouse) assessed as protection against pentylenetetrazole-induced seizures at 50 mg/kg, ip administered 1 hr before pentylenetetrazole challenge measured after 30 min; format: functional; conditions: route intraperitoneal
[4] = Lipophilicity, log P of the compound; format: physicochemical; conditions: octanol/water
[5] = tested on: Mus musculus; experiment: Anticonvulsant activity in ip dosed Mus musculus (mouse) assessed as protection against pentylenetetrazole-induced seizures administered 1 hr before pentylenetetrazole challenge measured after 30 min; format: functional; conditions: read-out: PD50
[6] = tested on: Mus musculus; experiment: Anticonvulsant activity in Mus musculus (mouse) assessed as protection against pentylenetetrazole-induced seizures at 20 mg/kg, ip administered 1 hr before pentylenetetrazole challenge measured after 30 min; format: functional; conditions: route intraperitoneal
[7] = tested on: Mus musculus; experiment: Anticonvulsant activity in Mus musculus (mouse) assessed as protection against pentylenetetrazole-induced seizures at 15 mg/kg, ip administered 1 hr before pentylenetetrazole challenge measured after 30 min; format: functional; conditions: route intraperitoneal
[8] = tested on: Mus musculus; experiment: Anticonvulsant activity in Mus musculus (mouse) assessed as protection against pentylenetetrazole-induced seizures at 10 mg/kg, ip administered 1 hr before pentylenetetrazole challenge measured after 30 min; format: functional; conditions: route intraperitoneal

O=C1C=C(Sc2nc3ccccc3c(=O)n2-c2ccccc2)C(=O)N=N1 showed an Activity [1] of 62.5%, an Activity [2] of 100% and an Activity [3] of 37.5%. The logP [4] was 2.13 and the ED50 [5] was 66 mg/kg.
For O=c1c2ccccc2nc(N/N=C/c2ccc(Cl)cc2)n1-c1ccccc1, the Activity [1] was 100%, the Activity [2] was 100% and the Activity [3] was 50%. For the same compound, the logP [4] was 5.53 and the ED50 [5] was 50 mg/kg.
Compound CCC1(c2ccccc2)C(=O)NC(=O)NC1=O [PHENOBARBITAL] has a logP [4] of 1.36, an ED50 [5] of 16 mg/kg and an Activity [6] of 62.5%. For the same compound, the Activity [7] was 50% and the Activity [8] was 37.5%.
For CCn1c(SCC(=O)c2ccc(Br)cc2)nc2ccccc2c1=O, the Activity [1] was 50%, the Activity [2] was 87.5% and the Activity [3] was 37.5%. It also gave a logP [4] of 4.45 and an ED50 [5] of 86 mg/kg.
For O=C(CSc1nc2ccccc2c(=O)n1-c1ccccc1)c1ccc(Br)cc1, the Activity [1] was 50%, the Activity [2] was 100% and the Activity [3] was 37.5%. It also gave a logP [4] of 5.77 and an ED50 [5] of 78 mg/kg.
Compound COc1ccc(C(=O)CSc2nc3ccccc3c(=O)n2-c2ccccc2)cc1 has an Activity [1] of 50%, an Activity [2] of 87.5% and an Activity [3] of 37.5%. For the same compound, the logP [4] was 4.82 and the ED50 [5] was 85 mg/kg.
Compound COc1ccc(/C=N/Nc2nc3ccccc3c(=O)n2-c2ccccc2)cc1OC has an Activity [1] of 62.5%, an Activity [2] of 87.5% and an Activity [3] of 25%. It also gave a logP [4] of 4.72 and an ED50 [5] of 83 mg/kg.
For CN1C(=O)CN=C(c2ccccc2)c2cc(Cl)ccc21 [DIAZEPAM], the ED50 [5] was 2 mg/kg.
In the case of COc1ccc(-c2nnc3n(-c4ccccc4)c(=O)c4ccccc4n23)cc1OC, the Activity [1] is reported as 37.5%, the Activity [2] is reported as 50% and the Activity [3] is reported as 12.5%. For the same compound, the logP [4] was 4.44 and the ED50 [5] was 160 mg/kg.
For O=c1c2ccccc2n2c(-c3ccc(Cl)cc3)nnc2n1-c1ccccc1, the Activity [1] was 62.5%, the Activity [2] was 100% and the Activity [3] was 37.5%. The logP [4] was 5.25 and the ED50 [5] was 64 mg/kg.
In the case of O=C(CSc1nc2ccccc2c(=O)n1-c1ccccc1)c1ccc(Cl)cc1, the Activity [1] is reported as 62.5%, the Activity [2] is reported as 87.5% and the Activity [3] is reported as 25%. The logP [4] was 5.5 and the ED50 [5] was 80 mg/kg.
O=C1NN=C(c2ccccc2)C(c2ccccc2)C1Sc1nc2ccccc2c(=O)n1-c1ccccc1 (stereo unspecified) showed an Activity [1] of 62.5%, an Activity [2] of 87.5% and an Activity [3] of 37.5%. It also gave a logP [4] of 6.4 and an ED50 [5] of 68 mg/kg.
Compound N#Cc1cnn(-c2nc3ccccc3c(=O)n2-c2ccccc2)c1N has an Activity [1] of 50%, an Activity [2] of 87.5% and an Activity [3] of 25%. For the same compound, the logP [4] was 3.01 and the ED50 [5] was 90 mg/kg.
